Tests used:
[1] = tested on: cow tooth (having a mirror polished surface); assay: Whitening effect on immersed cow tooth, judged from photographs by a panel of 20 experts; details: 1M aqueous solution of the acid containing 23% sodium fluoride, pH 4; cow tooth immersed 24 hours
Protocol: Using acids different in pKa, 1M aqueous solutions containing 23% sodium fluoride were prepared, followed by adjustment to pH 4 with sodium hydroxide. After measuring their dissolving capacity, a cow tooth (having a mirror polished surface), which had been photographed in advance, was immersed in each solution for 24 hours. After the treatment, the tooth was taken out from the solution and photographed again. The color of the tooth before immersion was compared with that after immersion. The comparison was made as follows: A panel of 20 experts was asked to see the photographs of the tooth before and after treatment and to evaluate it as ◯ when the teeth was whitened after the treatment, while as × when no change in color was recognized. Upon evaluation, the tooth which was whitened but lost its gloss was evaluated as ×. The preparation evaluated as ◯ by at least a half of the experts was judged effective and the others were judged ineffective.
Toothpastes as shown in Table 3 were prepared in a conventional manner. Dissolving capacity of each of their 30% aqueous solutions was measured as in Example 1. Their whitening effect was measured also as in Example 1 (by immersing in the toothpaste for 24 hours).

[2] = Dissolving capacity (HAP or FAP dissolving and CaF2 dissolving); type: physicochemical; details: 1M aqueous solution of the acid containing 23% sodium fluoride, pH 4 with sodium hydroxide; diluted to 30 wt. %, stirred 24 hours with HAP, FAP, CaF2 powder
Protocol: Dissolving capacity was measured in the following manner. Described specifically, the preparation is diluted to 30 wt. % with deionized water. The phosphorus and calcium concentrations in the solution were each determined in advance by using a calorimetric reagent and they were subtracted later. To 100 ml of the diluted solution were added hydroxyapatite (HAP), fluorapatite (FAP) and CAF2, each in the powdery form. The resulting mixture was stirred for 24 hours by a magnetic stirrer and the reaction mixture was filtered to remove the solid matter. The phosphorus and calcium concentrations in the solution were determined by a calorimetric reagent.
As the calorimetric reagents for calcium and phosphorus, Calcium Test Wako (for determination of calcium, product of Wako Pure Chemicals) and P Test Wako (for determination of inorganic phosphorus, product of Wako Pure Chemicals) were employed, respectively.

[3] = 25° C.; acid added; cited from earlier work

Row | Dissolving capacity [2] | SMILES | Whitening effect [1] | pKa [3]
1 | ∘ | CC(=O)O [Acetic acid] | ∘ | 
2 | ∘ | CC(O)C(=O)O (centres unmarked) [Lactic acid] | ∘ | 
3 | ∘ | O=C(O)CC(O)C(=O)O (centres unmarked) [Malic acid] | ∘ | 
4 | ∘ | O=P(O)(O)O [Phosphoric acid, reference compound] |  | 
5 |  | O=C(O)C(O)C(O)C(=O)O (centres unmarked) [Tartaric acid] | ∘ | 2.99

Row | SMILES | Dissolving capacity [2] | Whitening effect [1] | pKa [3]
6 | O=C(O)CC(O)(CC(=O)O)C(=O)O [Citric acid] | ∘ | ∘ | 2.9
7 | Cl [Hydrochloric acid, reference compound] | ∘ |  | 
8 | O=S(=O)(O)O [Sulfuric acid, reference compound] | ∘ |  | 

Source: patent publication US20030124068A1, “Oral preparation” (priority 2000, published 2003)
